Calls of active or inactive are those of the source. The calls are words filed in the database; no cut-off is given here.
How the values were obtained:
LoVo [1] = assay: Potency index, ratio of sulforaphane IC50 to compound IC50 for human LoVo cells; assay type: functional
[2] = Cytotoxicity against human LoVo/DX cells assessed as cell death at >15 uM after 24 hrs; assay type: cell-based
LoVo [3] = assay: Cytotoxicity against human LoVo cells after 72 hrs by sulforhodamine B assay; assay type: functional, cell-based
LoVo [4] = assay: Induction of apoptosis in human LoVo cells assessed as necrotic cells at 15 uM after 24 hrs by APC-Annexin-V/propidium iodide staining based flow cytometric method (reference value: 10%); assay type: functional
[5] = Induction of apoptosis in human LoVo/DX cells assessed as late apoptotic cells at 15 uM after 24 hrs by APC-Annexin-V/propidium iodide staining based flow cytometric method relative to control; assay type: functional
A549 = assay: Cytotoxicity against human A549 cells after 72 hrs by sulforhodamine B assay; assay type: functional, cell-based; conditions: A549, 72 h
LoVo [6] = assay: Cytotoxicity against human LoVo cells assessed as cell death at >15 uM after 24 hrs; assay type: cell-based
[7] = Induction of apoptosis in human LoVo/DX cells assessed as loss of mitochondrial membrane potential at 15 uM after 24 hrs by JC-1 staining based flow cytometric method relative to control; assay type: functional
LoVo [8] = assay: Induction of apoptosis in human LoVo cells assessed as increase in early apoptotic cells at 15 uM after 24 hrs by APC-Annexin-V/propidium iodide staining based flow cytometric method relative to control; assay type: functional
Mus musculus [9] = assay: Toxicity in BALB/c mdb mouse implanted with mouse 4T1 cells assessed as WBC level at 100 umol/kg, ip administered five times weekly measured at 29 day post cell innoculum (reference value: 212.3 +/- 82.8 10^3/uL); assay type: organism-based; conditions: in vivo, 696 h
Mus musculus [10] = assay: Toxicity in BALB/c mdb mouse implanted with mouse 4T1 cells assessed as spleen weight at 100 umol/kg, ip administered five times weekly measured at 29 day post cell innoculum (reference value: 0.603 +/- 0.133 g); assay type: organism-based; conditions: in vivo, 696 h

## O=P(CCCCCCN=C=S)(Oc1ccccc1)Oc1ccccc1
LoVo [1]
  Ratio IC50: 10
[2]
  Activity: Toxic
LoVo [3]
  IC50: 2900 nM
LoVo [4]
  Activity: 23.3%
[5]
  Activity: 59.7%
A549
  IC50: 11.1 µM
LoVo [6]
  Activity: Toxic
[7]
  Activity: 67%
LoVo [8]
  Activity: inactive
Mus musculus [9]
  Activity: 375.9 ×10³ /uL
Mus musculus [10]
  Activity: 0.632 g
